Data reported in patent publication US20220056019A1, “FARNESOID X RECEPTOR AGONISTS AND USES THEREOF” (Metacrine, Inc., priority 2018, published 2022).

Each molecule was assayed against T1, hFXR (Homo sapiens, UniProt Q96RI1) (assay: In Vitro FXR Assay (TK): TK-ECRE-luc reporter in transfected CV-1 cells). Conditions: 18 hrs incubation, luminescence.
T1 construct: expressed in transfected cells; host or cells: CV-1 cells
T1 sequence (Q96RI1 1-486): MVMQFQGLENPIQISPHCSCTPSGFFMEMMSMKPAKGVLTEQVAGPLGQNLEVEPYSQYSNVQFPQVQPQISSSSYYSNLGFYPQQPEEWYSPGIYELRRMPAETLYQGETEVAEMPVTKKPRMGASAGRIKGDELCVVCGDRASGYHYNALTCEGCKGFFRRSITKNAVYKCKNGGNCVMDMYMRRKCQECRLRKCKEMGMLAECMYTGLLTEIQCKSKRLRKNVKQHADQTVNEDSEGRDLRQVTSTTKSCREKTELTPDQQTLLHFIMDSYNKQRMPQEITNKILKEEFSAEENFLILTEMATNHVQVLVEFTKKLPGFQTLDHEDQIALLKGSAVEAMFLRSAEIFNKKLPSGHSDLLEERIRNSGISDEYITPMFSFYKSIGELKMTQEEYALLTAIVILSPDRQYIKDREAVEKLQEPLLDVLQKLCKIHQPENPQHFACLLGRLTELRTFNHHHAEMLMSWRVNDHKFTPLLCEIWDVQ
T1 sequence (P19793 1-462 partner): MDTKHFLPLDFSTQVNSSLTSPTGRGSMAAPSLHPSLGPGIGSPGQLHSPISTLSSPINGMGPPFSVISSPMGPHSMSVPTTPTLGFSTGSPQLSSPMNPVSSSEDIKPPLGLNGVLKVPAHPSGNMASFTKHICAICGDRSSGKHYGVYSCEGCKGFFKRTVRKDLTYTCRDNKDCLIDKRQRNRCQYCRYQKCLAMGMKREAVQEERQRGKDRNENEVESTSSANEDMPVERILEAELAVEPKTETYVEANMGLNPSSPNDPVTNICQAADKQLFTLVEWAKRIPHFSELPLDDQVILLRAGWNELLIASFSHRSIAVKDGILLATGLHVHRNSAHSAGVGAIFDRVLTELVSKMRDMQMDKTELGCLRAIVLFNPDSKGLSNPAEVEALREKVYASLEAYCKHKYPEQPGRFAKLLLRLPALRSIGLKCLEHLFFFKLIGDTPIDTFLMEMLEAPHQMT
Format: cell-based
How it was run: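 CV-1 cells in DMEM with 10% charcoal-stripped FBS were transiently co-transfected with hFXR, hRXR, TK-ECRE-luc reporter and pCMX-YFP plasmids over 18 h at 37 °C. Compounds serially diluted in DMSO were added for 18 h; cells were then lysed and luciferase luminescence measured.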

EC50, ≤ 0.05 µM:
COc1ccc(C23CCC(CN(c4cc(-c5coc(C6CC6)n5)ccn4)C(=O)[C@H]4CC[C@H](OC(=O)N5CC(O)C5)CC4)(CC2)CC3)cc1C [Compound 4.02, 4-((4-(2-Cyclopropyloxazol-4-yl)pyridin-2-yl)((4-(4-methoxy-3-methylphenyl)bicyclo[2.2.2]octan-1-yl)methyl)carbamoyl) cyclohexyl 3-hydroxyazetidine-trans-1-carboxylate]
COc1ccc(C23CCC(CN(c4cc(-c5cnn(C(C)C)c5)ccn4)C(=O)[C@H]4CC[C@H](OC(=O)N5CC(CS(C)(=O)=O)C5)CC4)(CC2)CC3)cc1C [Compound 4.44, 4-((4-(1-Isopropyl-1H-pyrazol-4-yl)pyridin-2-yl) ((4-(4-methoxy-3-methylphenyl)bicyclo [2.2.2]octan-1-yl)methyl)carbamoyl)cyclohexyl trans-3-((methylsulfonyl)methyl)azetidine-1-carboxylate]
CNC(=O)O[C@H]1CC[C@H](C(=O)N(CC23CCC(c4ccc(OC)c(C)c4)(CC2)CC3)c2cc(-c3cnn(C(C)C)c3)ccn2)CC1 [Compound 4.03, 4-((4-(1-Isopropyl-1H-pyrazol-4-yl)pyridin-2-yl)((4-(4-methoxy-3-methylphenyl)bicyclo [2.2.2]octan-1-yl)methyl)carbamoyl)cyclohexyl trans-methylcarbamate]
COc1ccc([C@H]2CC[C@H](CN(c3cc(-c4cnn(C(C)C)c4)ccn3)C(=O)[C@H]3CC[C@H](OC(=O)N4CCN(C)CC4)CC3)CC2)cc1Cl [Compound 2.06, trans-4-(((trans-4-(3-Chloro-4-methoxyphenyl)cyclohexyl)methyl)(4-(1-isopropyl-1H-pyrazol-4-yl)pyridin-2-yl)carbamoyl)cyclohexyl 4-methylpiperazine-1-carboxylate]
COc1ccc([C@H]2CC[C@H](CN(c3cc(-c4cnn(C(C)C)c4)ccn3)C(=O)[C@H]3CC[C@H](OC(=O)NC(C)C)CC3)CC2)cc1C [Compound 2.17, trans-4-((4-(1-Isopropyl-1H-pyrazol-4-yl)pyridin-2-yl)(((trans)-4-(4-methoxy-3-methylphenyl)cyclohexyl)methyl)carbamoyl) cyclohexyl isopropylcarbamate]
COc1ccc(C23CCC(CN(c4cc(-c5cnn(C(C)C)c5)ccn4)C(=O)[C@H]4CC[C@H](NC(=O)CO)CC4)(CC2)CC3)cc1C [Compound 9.02, trans-4-(2-Hydroxyacetamido)-N-(4-(1-isopropyl-1H-pyrazol-4-yl)pyridin-2-yl)-N-((4-(4-methoxy-3-methylphenyl)bicyclo[2.2.2]octan-1-yl)methyl)cyclohexanecarboxamide]
COc1ccc(C23CCC(CN(c4ccc(F)c(-c5cnn(C(C)C)c5)c4)C(=O)[C@H]4CC[C@H](OC(=O)N5CC(O)C5)CC4)(CC2)CC3)cc1C [Compound 26.03, 4-((4-Fluoro-3-(1-isopropyl-1H-pyrazol-4-yl)phenyl)((4-(4-methoxy-3-methylphenyl)bicyclo[2.2.2]octan-1-yl)methyl)carbamoyl)(trans-cyclohexyl) 3-hydroxyazetidine-1-carboxylate]
COc1ccc(C23CCC(CN(c4cc(-c5cnn(C(C)C)c5)ccn4)C(=O)[C@H]4CC[C@H](OC(=O)N5CC(S(C)(=O)=O)C5)CC4)(CC2)CC3)cc1C [Compound 4.11, 4-((4-(1-Isopropyl-1H-pyrazol-4-yl)pyridin-2-yl)((4-(4-methoxy-3-methylphenyl)bicyclo [2.2.2]octan-1-yl)methyl)carbamoyl)cyclohexyl 3-(methylsulfonyl) azetidine-trans-1-carboxylate]
COc1ccc(C23CCC(CN(c4cc(-c5cnn(C(C)C)c5)c(F)cn4)C(=O)[C@H]4CC[C@H](OC(=O)N5CC(O)C5)CC4)(CC2)CC3)cc1C [Compound 26.02, 4-((5-Fluoro-4-(1-isopropyl-1H-pyrazol-4-yl)pyridin-2-yl)((4-(4-methoxy-3-methylphenyl)bicyclo[2.2.2]octan-1-yl)methyl)carbamoyl)(trans-cyclohexyl) 3-hydroxyazetidine-1-carboxylate]
COc1ccc(C23CCC(CN(c4cc(-c5cnn(C6CCC6)c5)ccn4)C(=O)[C@H]4CC[C@H](OC(=O)N5CC(CO)C5)CC4)(CC2)CC3)cc1C [Compound 23.10, 4-((4-(1-Cyclobutyl-1H-pyrazol-4-yl)pyridin-2-yl)((4-(4-methoxy-3-methylphenyl)bicyclo[2.2.2]octan-1-yl)methyl)carbamoyl)(trans-cyclohexyl) 3-(hydroxymethyl)azetidine-1-carboxylate]
COc1ccc([C@H]2CC[C@H](CN(c3cc(-c4coc(C(C)C)n4)ccn3)C(=O)[C@H]3CC[C@H](OC(=O)NCC(C)(C)O)CC3)CC2)cc1C [Compound 2.26, trans-4-((4-(2-Isopropyloxazol-4-yl)pyridin-2-yl)(((trans)-4-(4-methoxy-3-methylphenyl)cyclohexyl)methyl)carbamoyl)cyclohexyl (2-hydroxy-2-methylpropyl)carbamate]
CCc1nc(-c2ccnc(N(C[C@H]3CC[C@H](c4ccc(OC)c(C)c4)CC3)C(=O)[C@H]3CC[C@H](OC(=O)NCC(C)(C)O)CC3)c2)co1 [Compound 2.49, trans-4-((4-(2-Ethyloxazol-4-yl)pyridin-2-yl)((trans-4-(4-methoxy-3-methylphenyl)cyclohexyl)methyl)carbamoyl)cyclohexyl (2-hydroxy-2-methylpropyl)carbamate]
CC(C)n1cc(-c2ccnc(N(CC34CCC(c5ccc(N(C)C)nc5)(CC3)CC4)C(=O)[C@H]3CC[C@H](OC(=O)N4CC(O)C4)CC3)c2)cn1 [Compound 4.57, 4-(((4-(6-(Dimethylamino)pyridin-3-yl)bicyclo[2.2.2]octan-1-yl)methyl)(4-(1-isopropyl-1H-pyrazol-4-yl)pyridin-2-yl)carbamoyl) (trans-cyclohexyl) 3-hydroxyazetidine-1-carboxylate]
COc1ccc([C@H]2CC[C@H](CN(c3cccc(-c4cnn(C(C)C)c4)c3)C(=O)[C@H]3CC[C@H](OC(=O)NC[C@H](F)CO)CC3)CC2)cc1C [Compound 5.07, trans-4-((3-(1-Isopropyl-1H-pyrazol-4-yl)phenyl)(((trans)-4-(4-methoxy-3-methylphenyl)cyclohexyl)methyl)carbamoyl)cyclohexyl ((S)-2-fluoro-3-hydroxypropyl) carbamate]
COc1ccc([C@H]2CC[C@H](CN(c3cc(-c4cnn(C(C)C)c4)ccn3)C(=O)[C@H]3CC[C@H](OC(=O)NC[C@@H](F)CO)CC3)CC2)cc1C [Compound 2.41, trans-4-((4-(1-Isopropyl-1H-pyrazol-4-yl)pyridin-2-yl) (((trans)-4-(4-methoxy-3-methylphenyl)cyclohexyl)methyl)carbamoyl) cyclohexyl((R)-2-fluoro-3-hydroxypropyl)carbamate]
COc1ccc(C23CCC(CN(c4cc(-c5cnc(C(C)C)s5)ccn4)C(=O)[C@H]4CC[C@H](OC(=O)NC5COC5)CC4)(CC2)CC3)cc1C [Compound 4.35, 4-((4-(2-Isopropylthiazol-5-yl)pyridin-2-yl)((4-(4-methoxy-3-methylphenyl)bicyclo[2.2.2]octan-1-yl)methyl)carbamoyl)(trans-cyclohexyl) oxetan-3-ylcarbamate]
COc1ccc(C23CCC(CN(c4cc(-c5nnn(C(C)C)n5)ccn4)C(=O)[C@H]4CC[C@H](OC(=O)N5CC(O)C5)CC4)(CC2)CC3)cc1C [Compound 26.16, 4-((4-(2-Isopropyl-2H-tetrazol-5-yl)pyridin-2-yl)((4-(4-methoxy-3-methylphenyl)bicyclo[2.2.2]octan-1-yl)methyl)carbamoyl)cyclohexyl trans-3-hydroxyazetidine-1-carboxylate]
CC(C)n1cc(-c2ccnc(N(CC34CCC(C5CCCCC5)(CC3)CC4)C(=O)[C@H]3CC[C@H](OC(=O)N4CC(O)C4)CC3)c2)cn1 [Compound 26.15, 4-(((4-Cyclohexylbicyclo[2.2.2]octan-1-yl)methyl)(4-(1-isopropyl-1H-pyrazol-4-yl)pyridin-2-yl)carbamoyl)cyclohexyl trans-3-hydroxyazetidine-1-carboxylate]
COc1ccc(C23CCC(CN(c4ccc(F)c(-c5cnn(C(C)C)c5)c4)C(=O)[C@H]4CC[C@H](OC(=O)N5CC(C#N)C5)CC4)(CC2)CC3)cc1C [Compound 25.11, 4-((4-Fluoro-3-(1-isopropyl-1H-pyrazol-4-yl)phenyl)((4-(4-methoxy-3-methylphenyl)bicyclo[2.2.2]octan-1-yl)methyl)carbamoyl)cyclohexyl trans-3-cyanoazetidine-1-carboxylate]
